Each compound was assayed on P. falciparum 3D7 growth, pLDH absorbance (assay: P. falciparum 3D7 growth inhibition, dose response, strain 3D7 (AID 2305)).

SMILES	IC50 [nM]
O=c1cc(NCCCNCc2scc(I)c2I)[nH]c2ccccc12	590
c1ccc(CNCc2cccc(-c3ccc(-c4nc5ccccc5[nH]4)cc3)c2)cc1	820
COc1ccc2ncc(F)c(CCN3CC[C@H](NC(=O)c4ccc5c(n4)NC(=O)CS5)[C@H](O)C3)c2n1	950
CCOC(=O)c1ccc2nc(-c3ccc(C(=O)NC4CCN(Cc5ccccc5)CC4)s3)[nH]c2c1	740
COc1ccc2nccc(N3CCC(NCCNCc4ccc5c(n4)NC(=O)CO5)C3)c2n1 (stereo not drawn)	860
Cc1ccc2c(c1C)NC(=O)C21NN=C(c2ccccc2)S1 (stereo not drawn)	750
O=C(/C=C/c1ccc(C(F)(F)F)cc1)NCCCCCN1CCCN(C(=O)Nc2ccc(Cl)c(Cl)c2)CC1	420
NC(=O)c1cc(-c2ccccc2)cc2c(C3CCC(NCc4ccccc4)C3)c[nH]c12 (stereo not drawn)	910
O=C(Nc1cccc(-c2ccc(-c3nc4ccc(C(F)(F)F)cc4[nH]3)s2)c1)c1cccnc1	360
NC1=NC2(CCCCC2)N(OCCCCCCC2CCCCC2)C(N)=N1	360
O=c1cc(NC[C@H]2CCC[C@@H]2NC2CCCc3c2[nH]c2ccccc32)[nH]c2ccccc12 (stereo partly drawn)	790
Nc1ccnc(N2CCC(CCOc3ccnc4cc(Cl)ccc34)CC2)c1	1160
Cc1nc2nc(N)nc(N)c2c(C)c1Cc1c(Cl)cccc1Cl	50
O=C(Nc1ccc(Oc2ccccc2)cc1)N1CCC(CN2CCC(c3c[nH]c4ccccc34)CC2)CC1	610
Cc1cccc2[nH]cc(C3CCN(CCC4CCN(C(=O)/C=C/c5ccc(Cl)c(Cl)c5)CC4)CC3)c12	1220
COc1cc2nc(N3CCC(c4ccccc4)CC3)nc(NCc3ccc(=O)[nH]c3)c2cc1OC	750
COc1cccc(CCNc2nc(NCc3ccccc3)c3cc(OC)c(OC)cc3n2)c1	320
COc1cccc(-c2cc(C(F)(F)F)n3ncc(C(=O)Nc4cc(Cl)ccc4O)c3n2)c1	200
Cc1cc(NN=Cc2ccccc2F)c2cc(F)ccc2n1	300
COc1ccc2nccc([C@@H](O)CN3CCC(NCCOc4ccc(F)cc4F)CC3)c2c1	140
Cc1ccc2cc(NC(=O)c3cccc(C(=O)Nc4ccc5nc(C)ccc5c4)n3)ccc2n1	1170
Cc1ccc(NC(=O)c2cccc(N3CCN(c4ccncc4)CC3)c2)cc1F	1300
CSc1sc(NC(=O)Nc2cccc(C(F)(F)F)c2)cc1C#N	910
Cc1ccc2c(NN=Cc3ccc(N(C)C)cc3)cc(C)nc2c1	880
Cc1ccc(N(CCC(=N)N)Cc2ccccc2)cc1	660

SMILES	IC50 [nM]
O=C(NC1CCC(CN2CCC(c3c[nH]c4ccccc34)CC2)CC1)c1cc(-c2ccccc2)c(C(F)(F)F)s1 (stereo not drawn)	170
Clc1ccc(-c2cc(-c3csc(NCCN4CCOCC4)n3)on2)c(Cl)c1	660
CC1(C)C(=O)Nc2ccc3c(c21)CC1SC(=O)NN=C31 (stereo not drawn)	1490
COc1cc(C(=O)Nc2cccc(-c3cn4cccc(C)c4n3)c2)cc(OC)c1OC	700
O=C(NCCCCCN1CCC(c2c[nH]c3ccccc23)CC1)Nc1ccc(I)c(Cl)c1	970
Cc1cc(N)c2cc(NC(=O)c3ccc4ccccc4c3)ccc2n1	250
CCCC(=O)Nc1ccc(OCCCCN(Cc2ccccc2C(F)(F)F)c2ccc(C(F)(F)F)c(C#N)c2)cc1	970
Cc1cc(N2CCOCC2)nc(Nc2ccc(NC(=O)Nc3ccc(F)cc3)cc2)n1	490
CC(=O)Nc1ncc(C(=O)Nc2cccc(-c3ccc(-c4nc5ccccc5[nH]4)cc3)c2)s1	670
c1ccc(Oc2ccc(Nc3nncc4ccccc34)cc2)cc1	690
c1ccc(-c2[nH]ncc2Nc2ccnc3ccccc23)nc1	820
O=C(/C=C/c1ccc(Cl)c(Cl)c1)NCCCCCN1CCC(c2c[nH]c3c(-c4ccccc4)cccc23)CC1	250
CS(=O)(=O)Cc1ccc(Nc2nccc(-c3c(-c4cccc(NC(=O)c5c(F)cccc5F)c4)nn4ccccc34)n2)cc1	150
Cc1cnc(C(=O)Nc2cccc(-c3ccc(-c4nc5ccc(C(F)(F)F)cc5[nH]4)s3)c2)cn1	700
CCCN(c1ccc(O)c(CN2CCCCC2)c1)c1ccc([N+](=O)[O-])cn1	800
CN(CCN)Cc1ccc(-c2ccc(-c3nc4ccc(C(F)(F)F)cc4[nH]3)s2)cc1	610
Cc1cc(N)cc2[nH]c(-c3ccc(N)cc3)nc12	890
CCN1CCN(C(=O)NC(C(=O)N(C)Cc2ccc(-c3ccc(C(F)(F)F)cc3)cc2)c2cccs2)C(=O)C1=O (stereo not drawn)	360
CCCCc1ccc(C(=O)Nc2ccc3nc(N4CCN(C)CC4)cc(C)c3c2)cc1	1100
CNCC(C)(C)c1nc(-c2ccc(Cl)c(O)c2)c(-c2ccncc2)[nH]1	740
Clc1ccc2nnc(-c3c(Cl)cccc3Cl)n2n1	910
CC(C)NC(C)(C)CN(Cc1ccc(-c2ccc(C(F)(F)F)cc2)cc1)C(=O)Cn1c(CCc2cccc(F)c2F)nc(=O)c2ccccc21	910
C[C@H](Cc1ccc(C(=O)OCCOC(=O)c2ccc(C[C@@H](C)NC[C@H](O)c3cccc(C(F)(F)F)c3)cc2)cc1)NC[C@H](O)c1cccc(C(F)(F)F)c1	820
O=C(Nc1ccccc1)N(Cc1cccc(-c2ccc(CNCc3ccc4c(c3)OCO4)cc2)c1)C1CCN(Cc2ccccc2)CC1	330
Cc1cccc2[nH]c(-c3cccc(-c4ccc(NC(=O)C5CC(=O)Nc6ccccc65)cc4)c3)nc12 (stereo not drawn)	690

SMILES	IC50 [nM]
COc1ccc(CN2CCCC(Nc3ccc(F)c(F)c3)C2)c(O)c1 (stereo not drawn)	1090
Cc1cc(F)ccc1[C@H]1CNCCN1C(=O)N(C)C(C)(C)c1cc(C(F)(F)F)cc(C(F)(F)F)c1	590
CC(C)(C)c1ccc(CNC(=O)COc2ccc(-c3nnc(-c4cccc([N+](=O)[O-])c4)o3)cc2[N+](=O)[O-])cc1	930
C1=C(c2c[nH]c3ccccc23)CCN(Cc2ccccc2)C1	1040
Cc1[nH]c2ccc(O)cc2c1C1CCN(CC2CCC(NC(=O)/C=C/c3c(Cl)cccc3Cl)CC2)CC1 (stereo not drawn)	820
COc1ccc2nccc([C@@H](O)CN3CCC(NC(=O)CCC(=O)c4cc(C(C)(C)C)ccc4OC)CC3)c2c1	850
Cc1cc(-c2ccc(S(=O)(=O)Nc3cc4c(cc3OC(C)C)CCN(C)CC4)cc2)ccc1Cl	900
COc1ccc2nccc([C@@H](O)CN3CCC(NCc4ccc5nc[nH]c(=O)c5c4)CC3)c2c1	920
COc1ccc(CNCc2cccc(-c3ccc(-c4nc5c(C)cccc5[nH]4)s3)c2)cc1	260
CN(Cc1ccncc1)C(Cc1ccccc1)C1CCN(Cc2ccc(O)c(Cl)c2)CC1 (stereo not drawn)	750
CC1(C)N=C(N)N=C(N)N1c1ccc(Br)cc1	10
CCc1sc(-c2ccc(C(C)(C)C)cc2)nc1C(=O)NCCCN1CCCC1=O	990
O=C(C1COc2ccccc2O1)N(CCCn1ccnc1)Cc1csc(-c2ccc(CNCc3ccccc3)cc2)n1 (stereo not drawn)	620
Cc1cnc(C(=O)Nc2ccc(-c3cccc(-c4nc5ccccc5[nH]4)c3)cc2)cn1	830
CCCC(=O)c1c(O)c2ccccc2oc1=O	260
Nc1nccc2ccc(-c3ccc4ncccc4c3)cc12	110
O=C(NCCc1ccccc1F)c1ccc(N2CCN(c3ccncc3)CC2)cn1	1080
Cc1noc(-c2ccc3c(c2)CCN(CCC2CCC(NC(=O)/C=C/c4cccc(Cl)c4)CC2)CC3)n1 (stereo not drawn)	1000
CC(C)N(CC(=O)c1ccc(O)c(C(=O)O)c1)Cc1ccccc1	190
CS(=O)(=O)c1ccccc1CNC(=O)c1ccc(-c2cccc(-c3nc4ccc(C(F)(F)F)cc4[nH]3)c2)cc1	870
CCOC(=O)C1CCN(CCCNC(=O)/C(=C/C=C/c2cc3cc(Cl)c(Cl)cc3[nH]2)OC)CC1	1040
O=C(c1cc(-c2ccccc2)n[nH]1)N1CCN(S(=O)(=O)c2ccc(Cl)s2)CC1	930
CCN(CC)Cc1cc(NC(=O)c2ccccc2O)ccc1Oc1ccc(Cl)cc1	830
O=C(/C=C/c1ccc(Cl)c(Cl)c1)NCCCCCN1CCC(NC(=O)Nc2ccc(F)c(Cl)c2)CC1	620
OCC1CCCCN1Cc1cccc(-c2cccc(-c3nc4ccccc4[nH]3)c2)c1 (stereo not drawn)	780

SMILES	IC50 [nM]
O=C(/C=C/c1ccc(C(F)(F)F)cc1)NCCCCCN1CCN(C(=O)Nc2ccc(Cl)c(Cl)c2)CC1	870
COc1ccc(C=Cc2cc(N)c3ccccc3n2)cc1Br	710
OC(CN1CCN(C2CCCCC2)CC1)Cn1c2ccccc2c2cc(Br)ccc21 (stereo not drawn)	860
COc1ccc(-c2cnc3[nH]cc(-c4ccncc4)c3c2)cc1OC	130
COc1cc(Cc2cnc(N)nc2N)cc(OC)c1OCCCCC(=O)O	1140
CCCCCCCCCn1c(NCc2cc(Cl)ccc2O)nc2ccccc21	830
CCn1c(-c2nonc2N)nc2c(-c3cccc(NC(=O)Nc4ccc(C#N)cc4)c3)ncc(OCCCN)c21	1510
CCCc1cc(NC2CCN(C)CC2)nc(Nc2cccc(OC)c2)n1	770
CC(O)C1CCCCN1C(=O)c1cccc(-c2cccc(-c3nc4ccccc4[nH]3)c2)c1 (stereo not drawn)	530
CCOC(=O)CC[C@@H](NC(=O)c1ccc(NCc2ccc3ccc4nc(C)[nH]c(=O)c4c3c2)cc1F)C(=O)N[C@@H](Cc1c[nH]c2ccccc12)C(=O)OCC	1030
Cc1cc(C)c(NC(=O)NC2CCN(CCCCCNC(=O)/C=C/c3ccc(Cl)c(Cl)c3)C2)c(C)c1 (stereo not drawn)	190
CCCC1N=C(N)N=C(N)N1c1ccc(CC)cc1 (stereo not drawn)	70
CCN(CCCN1CCCCC1)c1cc(C)nc(Nc2ccc(C)c(Cl)c2)n1	210
NC1=NC(c2ccccc2)(c2ccccn2)C(=O)N1CCCc1ccccc1 (stereo not drawn)	1040
N#Cc1c(N)n(CCc2ccc(F)cc2)c2nc3ccccc3nc12	970
O=C(CSc1nc2ccccc2c(=O)n1CC1CCCO1)Nc1cc(C(F)(F)F)ccc1Cl (stereo not drawn)	230
CC(=O)c1ccc(N2C(=O)C3C(Cc4ccc(OC(C)(C)C)cc4)NC4(C(=O)N(Cc5ccc(C(C)(C)C)cc5)c5ccccc54)C3C2=O)cc1 (stereo not drawn)	1280
CCCCCCCc1cc(=O)c2ccccc2[nH]1	320
CN1CCN(c2ccnc3ccc(NC(=O)N(C)c4ccc(Cl)c(Cl)c4)cc23)CC1	740
Cc1ccc(CNC(=O)[C@H](Cc2ccccc2)Nc2ccnc(NCC3CCCCC3)n2)cc1	1190
COc1cc(C)nc2ccc(NC(=O)Nc3ccccc3[N+](=O)[O-])cc12	840
Cc1ccc(C2CCN(CCCCNC(=O)c3ccc(NC(=O)c4ccc(Cl)cc4)cc3)CC2)c(OCC2CC2)c1	890
Cc1cc(N2CCNCC2)c2cc(NC(=O)Nc3ccc(Cl)c(Cl)c3)ccc2n1	310

Source: PubChem BioAssay AID2305 (GlaxoSmithKline (GSK), 2010)
